{"source": "patent US7601708B2", "about": "“Bile-acid derived compounds for providing sustained systemic concentrations of drugs after oral administration” (XenoPort, Inc., priority 2000, dated 2009)", "key": {"[1]": {"target": "T1, IBAT (Homo sapiens, UniProt Q12908)", "T1 construct": "expressed in transfected cells; host or cells: CHO", "assay": "In vitro uptake by CHO cells transfected with IBAT evaluated by LC-MS/MS", "format": "cell-based", "conditions": "0.06 to 1000 μM, 10 min; uptake by untransfected CHO K1 cells subtracted", "procedure": "(§1) Active transport of (8) by the bile acid transport system was evaluated in vitro by incubation of (8) or glycocholate (control substrate) with untransfected CHO K1 cells or CHO cells transfected with either IBAT or LBAT. Cells (10^5 cells/mL) were incubated in 96 well plates with varying concentrations (0.06 to 1000 μM) of (8) or glycocholate for 10 min. Cells were then washed with Hank's Balanced Salt Solution (HBSS) and lysed and extracted by addition of 100 μL of water followed by sonication. Concentrations of (8) or glycocholate in cell extracts were determined by direct injection onto an API 2000 LC/MS/MS equipped with an Agilent 1100 binary pump and autosampler. Separation was achieved using a Keystone BDS Hypersil 2×50 mm column heated to 45° C. during the analysis. The mobile phases were: 0.1% formic acid in water (A) and 0.1% formic acid in acetonitrile (B). The gradient condition was: 5% B for 1 min, increasing to 90% B in 0.2 min, maintained for 2.8 min and returning to 5% B for 2 min. A TurboIonSpray source was used on the API 2000. The analysis was performed in the positive ion mode and MRM transitions of 466/412 and 562/154 were used in the analysis of glycocholate and (8), respectively. Ten microliters of the cell extracts were injected. Peaks were integrated using Analyst quantitation software. […]"}, "[2]": {"target": "T2, LBAT (Homo sapiens, UniProt Q14973)", "T2 construct": "expressed in transfected cells; host or cells: CHO", "assay": "In vitro uptake by CHO cells transfected with LBAT evaluated by LC-MS/MS", "format": "cell-based", "conditions": "0.06 to 1000 μM, 10 min; uptake by untransfected CHO K1 cells subtracted", "procedure": "as §1"}, "[3]": {"assay": "Secretion in bile after oral administration to bile duct-cannulated rats", "format": "in vivo, Sprague-Dawley rats", "conditions": "single oral dose of (8) 85.25 mg/kg", "procedure": "Sustained release of gabapentin from a prodrug that is subject to enterohepatic recirculation requires that a proportion of the intact prodrug be absorbed after oral administration and subsequently secreted into the bile intact. The potential for enterohepatic recirculation of intact (8) was examined in rats with indwelling bile duct fistulae. […] Bile was collected continuously in aliquots over 24 hours. Plasma and bile samples were frozen at −80° C. until analyzed. […] Concentrations of intact (8) in bile were similarly determined by LC/MS/MS. Bile (20 μL) was diluted 1:1000 with methanol and injected directly onto the HPLC system. Concentrations of (8) in bile reached a maximum at ˜6 hours post-dosing and were sustained up to 24 hours."}, "[4]": {"target": "T3, Carboxypeptidase A (Bos taurus, UniProt P00730)", "T3 sequence (P00730 111-419)": "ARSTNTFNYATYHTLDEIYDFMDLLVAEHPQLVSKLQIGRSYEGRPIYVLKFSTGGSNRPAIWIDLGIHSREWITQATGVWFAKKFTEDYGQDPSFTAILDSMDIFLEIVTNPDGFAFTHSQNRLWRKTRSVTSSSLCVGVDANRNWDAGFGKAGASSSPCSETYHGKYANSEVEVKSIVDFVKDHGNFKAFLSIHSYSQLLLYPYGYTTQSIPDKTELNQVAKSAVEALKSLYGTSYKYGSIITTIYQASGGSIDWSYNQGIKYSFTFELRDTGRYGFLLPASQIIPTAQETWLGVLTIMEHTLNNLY", "assay": "Stability towards purified carboxypeptidase A", "format": "in vitro ADME", "conditions": "Carboxypeptidase A (10 units/mL); substrate 2.0 μM; no cofactors; 37° C."}, "[5]": {"conditions": "male, Sprague-Dawley, rat, in vivo, po, 85.25 mg/kg"}, "[6]": {"assay": "Pharmacokinetics after oral administration to rats", "conditions": "single oral dose of gabapentin 25 mg/kg"}, "[7]": {"target": "T4, LBAT (Homo sapiens, UniProt Q14973)", "T4 sequence (Q14973 1-349)": "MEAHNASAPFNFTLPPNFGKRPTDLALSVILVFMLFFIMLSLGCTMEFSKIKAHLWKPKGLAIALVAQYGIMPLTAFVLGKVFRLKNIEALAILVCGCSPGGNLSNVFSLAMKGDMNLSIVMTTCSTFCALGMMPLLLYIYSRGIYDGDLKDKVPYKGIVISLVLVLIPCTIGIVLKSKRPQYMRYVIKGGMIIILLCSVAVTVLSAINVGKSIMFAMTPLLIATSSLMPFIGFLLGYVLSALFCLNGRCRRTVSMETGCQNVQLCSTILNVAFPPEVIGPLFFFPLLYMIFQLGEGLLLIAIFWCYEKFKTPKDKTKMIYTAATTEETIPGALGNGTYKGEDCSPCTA", "assay": "Electrogenic transport in Xenopus oocytes expressing LBAT", "format": "cell-based", "conditions": "maximal induced current relative to glycodeoxycholate (100 μM)", "procedure": "(b) Analysis of Electrogenic Transport in Xenopus Oocytes RNA Preparation: Human IBAT and LBAT Transporter cDNAs were subcloned into a modified pGEM plasmid that contains [NT] untranslated sequences from the Xenopus β-actin gene. These sequences increase RNA stability and protein expression. […] Xenopus oocyte isolation. Xenopus laevis frogs were anesthetized by immersion in Tricaine ([…] in deionized water) for 15 min. […] The oocytes were washed 6 times, and the buffer changed to frog ringer solution containing CaCl2 (1.8 mM). Remaining follicle cells were removed if necessary. Cells were incubated at 16° C., and each oocyte injected with […] solution. Electrophysiology measurements. […] Bath flow was controlled by an automated perfusion system (ALA Scientific Instruments, solenoid valves). For transporter pharmacology, oocytes were clamped at -60 to -90 mV, and continuous current measurements acquired using PowerLab Software and an ADInstruments digitizer. Current signals were lowpass filtered at 20 Hz and acquired at 4-8 Hz. All bath and drug-containing solutions were frog ringers solution containing CaCl2. […] The difference current (baseline subtracted from peak current during drug application) reflected the net movement of charge resulting from electrogenic transport and was directly proportional to tranport rate."}}, "data": [{"molecule": "CC(CCC(=O)NCC1(CC(=O)O)CCCCC1)C1CCC2C3C(O)CC4CC(O)CCC4(C)C3CC(O)C12C", "note": "(stereo not shown) [Compound (8)]", "values": [{"measurement": "Active uptake into IBAT transfected cells", "setting": "[1]", "result": "Active uptake"}, {"measurement": "Active uptake into LBAT transfected cells", "setting": "[2]", "result": "Active uptake"}, {"measurement": "time of maximum concentration of (8) in bile", "setting": "[3]", "result": "~6", "unit": "h"}, {"measurement": "time to which concentrations of (8) in bile were sustained", "setting": "[3]", "result": 24, "unit": "h"}, {"measurement": "gabapentin in plasma of bile duct-cannulated rats", "setting": "[3]; analyte gabapentin", "result": "no gabapentin was detected"}, {"measurement": "Percent of Gabapentin Released in 60 min", "setting": "[4]", "result": "Stable"}, {"measurement": "time of maximum concentration of intact (8) in plasma", "setting": "[5]", "result": "~8", "unit": "h"}, {"measurement": "time to which concentrations of intact (8) in plasma were sustained", "setting": "[5]", "result": 24, "unit": "h"}]}, {"molecule": "NCC1(CC(=O)O)CCCCC1", "note": "[gabapentin, 1-aminomethyl-1-cyclohexaneacetic acid]", "values": [{"measurement": "terminal half-life of gabapentin in plasma", "setting": "[6]", "result": "2.4 ± 0.5", "unit": "h"}]}, {"molecule": "CC(CCC(=O)NCC(=O)NCC1(CC(=O)O)CCCCC1)C1CCC2C3C(O)CC4CC(O)CCC4(C)C3CC(O)C12C", "note": "(stereo not shown) [(13), Cholyl-Gly-Gabapentin]", "values": [{"measurement": "% Max. (GDC)", "setting": "[7]", "result": 38, "unit": "%"}]}]}
